31 molecules from patent publication US20250092033A1, “HETEROAROMATIC NITROGEN-OXIDE COMPOUND, PREPARATION METHOD THEREFOR, AND USE THEREOF” (BEIJING AVISTONE BIOTECHNOLOGY CO., LTD., priority 2021, published 2025) can be followed below.

Common to all, as to type: biochemical
Common to all, as to conditions: 10 concentrations, 3-fold dilution

Assay [1] deals with T1, MET F1200I (Homo sapiens, UniProt P08581, F1200I).
T1 construct: purchased Signalchem M52-12GG/Y767-2
Nature of the assay: Kinase inhibition experiment (HTRF KinEASE-TK kit), mutant MET F1200I. As for the experimental part: (§1) The activity of the compounds was determined by detecting the residual amount of ATP after reacting with wild-type or mutant MET protein kinase by using an HTRF KinEASE-TK kit. […]
(§2) The compounds were determined on the selected kinase, the solvent control was set and a total of 10 concentrations were detected, diluted 3-fold, 2 replicates per concentration.
(§3) 1 volume of 5× kinase reaction buffer and 4 volumes of water; 5 mM MgCl2; 1 mM DTT; 1 mM MnCl2; or 2500 nm SEB.
(§4) 1) 10 nl or 4 μlof the diluted compound was transferred to each well of the reaction plate (784075 or 264706, Greiner or Thermo) with a pipette, the reaction plate was sealed with a sealing plate, and centrifuged at 1000 for 1 minute.
(§5) 2) 2× MET was prepared from 1× enzyme reaction buffer, 5 μl or 2 μl kinase was added to each well of the reaction plate, the reaction plate was sealed with a sealing plate, centrifuged at 1000 g for 30 seconds and incubated at room temperature for 10 min.
(§6) 3) a mixed solution of 2× TK-substrate-biotin and ATP were prepared from 1× enzyme reaction buffer solution, 5 μl or 2 μl TK-substrate-biotin/ATP of the mixed solution was added into a reaction plate, the reaction plate was sealed with a sealing plate, centrifuged at 1000 g for 30 seconds and reacted for 50 minutes or 10 minutes at room temperature.
(§7) 4) a mixed solution of 4× or 2× Sa-XL 665 and TK-antibody-Cryptate were prepared from HTRF detection buffer, 5 or 10 μl of the mixed solution of Sa-XL 665 and TK-antibody-Cryptate was added into each well, centrifuged at 1000 g for 30 seconds, and reacted at room temperature for 1 h.
(§8) 5) the fluorescence signals at 615 nm (cryptate) and 665 nm (XL665) were read with Envision 2104 or TECAN.
(§9) The data was analyzed using GraphPad Prism 6.0 or 7 software, and the dose-response curve was fitted with nonlinear S-curve regression, and the IC50 value was calculated therefrom.
(§10) Enzyme Inhibition Percent (%)=100-(Signalmpd-SignalAve_PC)/(SignalAve_VC-SignalAve_PC)×100
(In TR-FRET formats the signal depends on donor and acceptor labels being close together.)

The target in assay [2] is T2, wild type (WT) MET kinase (Homo sapiens, UniProt P08581).
T2 construct: purchased Carna 08-151
Nature of the assay: Kinase inhibition experiment (HTRF KinEASE-TK kit), wild-type MET. As for the experimental part:
as §1, §2, §3, §4, §5, §6, §7, §8, §9, §10

In assay [3] the target is T3, MET D1228N (Homo sapiens, UniProt P08581, D1228N).
T3 construct: purchased Signalchem M52-12IG
Nature of the assay: Kinase inhibition experiment (HTRF KinEASE-TK kit), mutant MET D1228N. As for the experimental part:
as §1, §2, §3, §4, §5, §6, §7, §8, §9, §10

T2 sequence (P08581 25-1390): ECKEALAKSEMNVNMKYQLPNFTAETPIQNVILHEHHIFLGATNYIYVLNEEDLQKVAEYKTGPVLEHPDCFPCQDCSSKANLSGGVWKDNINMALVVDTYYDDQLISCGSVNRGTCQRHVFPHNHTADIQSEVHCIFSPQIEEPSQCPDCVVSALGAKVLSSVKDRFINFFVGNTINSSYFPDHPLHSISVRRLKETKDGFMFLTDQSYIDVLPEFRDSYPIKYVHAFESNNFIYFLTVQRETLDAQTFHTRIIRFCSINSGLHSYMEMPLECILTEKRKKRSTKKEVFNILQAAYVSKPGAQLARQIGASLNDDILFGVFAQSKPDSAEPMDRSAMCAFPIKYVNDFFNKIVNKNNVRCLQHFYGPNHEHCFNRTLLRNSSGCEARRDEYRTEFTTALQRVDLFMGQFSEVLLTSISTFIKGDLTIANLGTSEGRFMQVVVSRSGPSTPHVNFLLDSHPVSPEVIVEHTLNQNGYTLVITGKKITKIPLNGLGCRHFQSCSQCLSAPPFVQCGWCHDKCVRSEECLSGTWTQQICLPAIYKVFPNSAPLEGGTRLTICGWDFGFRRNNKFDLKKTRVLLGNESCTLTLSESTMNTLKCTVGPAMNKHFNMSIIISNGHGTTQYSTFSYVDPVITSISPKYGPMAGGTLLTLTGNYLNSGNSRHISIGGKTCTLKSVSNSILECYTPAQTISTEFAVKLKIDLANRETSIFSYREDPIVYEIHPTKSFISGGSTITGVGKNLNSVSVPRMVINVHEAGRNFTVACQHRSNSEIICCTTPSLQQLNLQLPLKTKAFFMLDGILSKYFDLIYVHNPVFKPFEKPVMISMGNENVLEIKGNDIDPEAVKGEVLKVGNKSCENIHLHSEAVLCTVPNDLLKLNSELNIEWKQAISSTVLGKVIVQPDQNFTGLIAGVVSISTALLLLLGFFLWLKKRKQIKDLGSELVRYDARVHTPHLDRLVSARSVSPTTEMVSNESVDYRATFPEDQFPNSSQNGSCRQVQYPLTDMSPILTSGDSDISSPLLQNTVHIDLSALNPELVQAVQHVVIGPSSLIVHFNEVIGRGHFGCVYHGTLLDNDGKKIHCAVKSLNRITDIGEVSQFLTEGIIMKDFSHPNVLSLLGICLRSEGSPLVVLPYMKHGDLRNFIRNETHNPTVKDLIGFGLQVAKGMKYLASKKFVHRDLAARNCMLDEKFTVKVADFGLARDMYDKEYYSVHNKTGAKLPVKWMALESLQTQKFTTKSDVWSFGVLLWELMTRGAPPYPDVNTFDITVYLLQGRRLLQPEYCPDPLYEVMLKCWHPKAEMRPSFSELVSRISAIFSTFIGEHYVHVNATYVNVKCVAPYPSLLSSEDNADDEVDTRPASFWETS
T3 sequence (P08581 25-1390 D1228N): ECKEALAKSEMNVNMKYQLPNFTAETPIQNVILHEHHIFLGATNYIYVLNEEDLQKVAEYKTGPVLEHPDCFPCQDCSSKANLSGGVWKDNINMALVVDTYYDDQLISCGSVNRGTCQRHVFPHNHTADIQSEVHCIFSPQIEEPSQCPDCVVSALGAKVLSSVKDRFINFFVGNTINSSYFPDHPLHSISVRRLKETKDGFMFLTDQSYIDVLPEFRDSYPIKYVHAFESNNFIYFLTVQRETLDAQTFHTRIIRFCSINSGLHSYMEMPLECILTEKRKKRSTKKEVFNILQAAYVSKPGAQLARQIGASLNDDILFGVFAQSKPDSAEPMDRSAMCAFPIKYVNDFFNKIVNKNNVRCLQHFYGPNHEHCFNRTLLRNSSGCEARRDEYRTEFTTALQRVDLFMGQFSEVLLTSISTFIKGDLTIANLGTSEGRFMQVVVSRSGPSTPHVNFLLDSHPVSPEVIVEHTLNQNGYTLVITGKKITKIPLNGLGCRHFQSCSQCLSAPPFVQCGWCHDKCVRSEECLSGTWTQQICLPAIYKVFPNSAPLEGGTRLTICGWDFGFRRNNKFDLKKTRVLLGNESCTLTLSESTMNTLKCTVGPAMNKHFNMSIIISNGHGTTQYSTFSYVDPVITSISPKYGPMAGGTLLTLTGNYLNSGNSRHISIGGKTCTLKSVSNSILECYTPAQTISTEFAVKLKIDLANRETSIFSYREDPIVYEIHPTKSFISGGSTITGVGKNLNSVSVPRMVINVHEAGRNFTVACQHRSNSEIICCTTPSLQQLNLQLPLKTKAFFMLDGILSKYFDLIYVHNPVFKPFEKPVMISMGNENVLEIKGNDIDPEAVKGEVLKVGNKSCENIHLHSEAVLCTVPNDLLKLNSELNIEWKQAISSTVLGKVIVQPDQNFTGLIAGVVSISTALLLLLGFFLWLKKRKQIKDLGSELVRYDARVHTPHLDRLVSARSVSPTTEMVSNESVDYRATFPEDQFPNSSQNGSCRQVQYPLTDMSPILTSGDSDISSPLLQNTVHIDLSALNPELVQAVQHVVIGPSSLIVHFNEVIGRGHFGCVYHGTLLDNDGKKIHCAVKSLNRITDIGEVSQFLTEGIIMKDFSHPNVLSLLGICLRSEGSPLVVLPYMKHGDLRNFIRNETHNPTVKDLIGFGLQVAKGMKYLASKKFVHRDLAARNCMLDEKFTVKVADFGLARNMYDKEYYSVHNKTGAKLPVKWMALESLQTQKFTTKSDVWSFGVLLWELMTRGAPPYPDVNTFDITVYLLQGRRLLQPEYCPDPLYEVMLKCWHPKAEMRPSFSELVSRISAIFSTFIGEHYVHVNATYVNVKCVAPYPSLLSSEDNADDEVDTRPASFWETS
T1 sequence (P08581 25-1390 F1200I): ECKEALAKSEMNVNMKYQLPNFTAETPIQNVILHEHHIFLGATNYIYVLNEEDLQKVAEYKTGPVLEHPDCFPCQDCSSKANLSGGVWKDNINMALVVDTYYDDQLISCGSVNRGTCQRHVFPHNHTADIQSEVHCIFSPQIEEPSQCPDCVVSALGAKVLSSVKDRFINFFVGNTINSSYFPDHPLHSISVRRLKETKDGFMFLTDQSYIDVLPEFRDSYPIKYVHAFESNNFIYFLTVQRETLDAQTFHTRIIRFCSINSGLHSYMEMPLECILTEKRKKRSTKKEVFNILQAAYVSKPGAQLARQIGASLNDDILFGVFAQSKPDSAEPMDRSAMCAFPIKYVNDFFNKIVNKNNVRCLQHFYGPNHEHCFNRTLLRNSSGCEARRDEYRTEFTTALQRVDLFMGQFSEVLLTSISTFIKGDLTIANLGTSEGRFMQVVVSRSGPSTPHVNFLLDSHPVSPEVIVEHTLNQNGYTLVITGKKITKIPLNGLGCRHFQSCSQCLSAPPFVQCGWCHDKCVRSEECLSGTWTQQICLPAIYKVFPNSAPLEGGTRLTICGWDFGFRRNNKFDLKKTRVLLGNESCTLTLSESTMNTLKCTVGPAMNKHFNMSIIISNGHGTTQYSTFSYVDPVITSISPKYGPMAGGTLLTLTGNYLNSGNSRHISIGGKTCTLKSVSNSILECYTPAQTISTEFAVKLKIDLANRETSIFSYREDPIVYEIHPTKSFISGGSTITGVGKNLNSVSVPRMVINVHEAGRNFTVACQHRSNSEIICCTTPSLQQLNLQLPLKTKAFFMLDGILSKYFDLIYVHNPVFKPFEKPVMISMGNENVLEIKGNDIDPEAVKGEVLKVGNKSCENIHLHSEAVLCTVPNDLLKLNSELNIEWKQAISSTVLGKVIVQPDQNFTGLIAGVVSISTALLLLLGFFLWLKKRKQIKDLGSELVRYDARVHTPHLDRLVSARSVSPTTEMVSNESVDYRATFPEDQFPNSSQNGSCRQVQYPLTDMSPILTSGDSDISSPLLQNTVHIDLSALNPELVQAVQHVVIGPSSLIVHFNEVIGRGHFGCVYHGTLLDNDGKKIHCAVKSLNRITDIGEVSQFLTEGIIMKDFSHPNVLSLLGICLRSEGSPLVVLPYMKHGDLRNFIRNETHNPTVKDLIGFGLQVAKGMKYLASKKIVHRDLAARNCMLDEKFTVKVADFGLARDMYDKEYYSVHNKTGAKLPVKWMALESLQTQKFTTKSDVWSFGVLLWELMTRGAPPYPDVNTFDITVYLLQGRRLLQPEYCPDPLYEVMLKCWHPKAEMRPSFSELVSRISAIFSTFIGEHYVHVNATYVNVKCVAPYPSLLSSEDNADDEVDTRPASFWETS

As to `O=C(Nc1ccc(Oc2ccnc3[nH]nc(NCCO)c23)c(F)c1)c1cccc(-c2ccc(F)cc2)[n+]1[O-]` [Final product 1], the IC50 (commonly the concentration needed to halve the response being measured) in assay [1] was 5.8 nM; in assay [2] it was 2.3 nM; in assay [3], 35.4 nM.
As to `C[C@@H](CO)Nc1n[nH]c2nccc(Oc3ccc(NC(=O)c4cccc(-c5ccc(F)cc5)[n+]4[O-])cc3F)c12` [Final product 3], the IC50 in assay [1] was 18.3 nM; in assay [2], 4.3 nM; in assay [3], 13.1 nM.
For `CC[C@@H](CO)Nc1n[nH]c2nccc(Oc3ccc(NC(=O)c4cccc(-c5ccc(F)cc5)[n+]4[O-])cc3F)c12` [Final product 6], the figures for the IC50 in assay [1], in assay [2] and in assay [3] were 21.4 nM, 8.5 nM and 30 nM, respectively.
Turning to `CC(O)CNc1n[nH]c2nccc(Oc3ccc(NC(=O)c4cccc(-c5ccc(F)cc5)[n+]4[O-])cc3F)c12` (stereo not drawn) [Final product 8], the IC50 in assay [1] turned out to be 2.3 nM; in assay [2], 4.6 nM; in assay [3] it was 28.4 nM.
Regarding `CCC(O)CNc1n[nH]c2nccc(Oc3ccc(NC(=O)c4cccc(-c5ccc(F)cc5)[n+]4[O-])cc3F)c12` (stereo not drawn) [Final product 9], the values for the half-inhibitory concentration (IC50) in assay [1], in assay [2] and in assay [3] were 20.8 nM, 3.8 nM and 25.6 nM, respectively.
For `O=C(Nc1ccc(Oc2ccnc3[nH]nc(NCC(O)C(F)(F)F)c23)c(F)c1)c1cccc(-c2ccc(F)cc2)[n+]1[O-]` (stereo not drawn) [Final product 11], the IC50 came to 16.8 nM in assay [1], 6.3 nM in assay [2] and 35.7 nM in assay [3].
In the case of `C[C@@H](Nc1n[nH]c2nccc(Oc3ccc(NC(=O)c4cccc(-c5ccc(F)cc5)[n+]4[O-])cc3F)c12)C(C)(C)O` [Final product 16], the IC50 in assay [1] was 25.8 nM; in assay [2] it was 7.5 nM; in assay [3], 28.2 nM.
In the same order, the values of `O=C(Nc1ccc(Oc2ccnc3[nH]nc(NCC4(CO)CC(O)C4)c23)c(F)c1)c1cccc(-c2ccc(F)cc2)[n+]1[O-]` (stereo not drawn) [Final product 20] are 20.1 nM, 6.9 nM and 29.9 nM.
With `O=C(Nc1ccc(Oc2ccnc3[nH]nc(NC4(CO)CC4)c23)c(F)c1)c1cccc(-c2ccc(F)cc2)[n+]1[O-]` [Final product 22], the IC50 amounted to 15.5 nM in assay [1], 5.9 nM in assay [2] and 25.5 nM in assay [3].
As to `O=C(Nc1ccc(Oc2ccnc3[nH]nc(N[C@H]4C[C@H](O)C4)c23)c(F)c1)c1cccc(-c2ccc(F)cc2)[n+]1[O-]` [Final product 23], the 50% inhibitory concentration (IC50) is 12.5 nM in assay [1], 3.3 nM in assay [2] and 21 nM in assay [3].
For `O=C(Nc1ccc(Oc2ccnc3[nH]nc(N4CCC(O)CC4)c23)c(F)c1)c1cccc(-c2ccc(F)cc2)[n+]1[O-]` [Final product 26, 2-((3-fluoro-4-((3-(4-hydroxypiperidin-1-yl)-1H-pyrazolo[3,4-b]pyridin-4-yl)oxy)phenyl)carbamoyl)-6-(4-fluorophenyl)pyridine 1-oxide] the same measures were 9.5 nM, 3.8 nM and 18.1 nM.
For `CC1(O)CCN(c2n[nH]c3nccc(Oc4ccc(NC(=O)c5cccc(-c6ccc(F)cc6)[n+]5[O-])cc4F)c23)CC1` [Final product 27] the same measures were 8.6 nM, 4.5 nM and 13.4 nM.
For the molecule `CC1(CO)CCN(c2n[nH]c3nccc(Oc4ccc(NC(=O)c5cccc(-c6ccc(F)cc6)[n+]5[O-])cc4F)c23)CC1` [Final product 29], the IC50 amounted to 20.4 nM in assay [1], 5.2 nM in assay [2] and 15.8 nM in assay [3].
Consider `O=C(Nc1ccc(Oc2ccnc3[nH]nc(N4CCC[C@H](CO)C4)c23)c(F)c1)c1cccc(-c2ccc(F)cc2)[n+]1[O-]` [Final product 33], for which the IC50 was 21.1 nM in assay [1], 9.7 nM in assay [2] and 30.5 nM in assay [3].
As to `O=C(Nc1ccc(Oc2ccnc3[nH]nc(N4CCO[C@@H](CO)C4)c23)c(F)c1)c1cccc(-c2ccc(F)cc2)[n+]1[O-]` [Final product 34], the figures for the 50% inhibitory concentration (IC50) in assay [1], in assay [2] and in assay [3] were 12.3 nM, 2.7 nM and 18.8 nM, respectively.
For `O=C(Nc1ccc(Oc2ccnc3[nH]nc(N4CCO[C@H](CO)C4)c23)c(F)c1)c1cccc(-c2ccc(F)cc2)[n+]1[O-]` [Final product 35] the same measures were 17.9 nM, 2 nM and 14.7 nM.
For `C[C@H](CO)Nc1n[nH]c2nccc(Oc3ccc(NC(=O)c4cccc(-c5ccc(Cl)cc5)[n+]4[O-])cc3F)c12` [Final product 42], the IC50 came to 14.2 nM in assay [1], 1.4 nM in assay [2] and 36.2 nM in assay [3].
For the molecule `C[C@H](CO)Nc1n[nH]c2nccc(Oc3ccc(NC(=O)c4ccc(F)c(-c5ccc(Cl)cc5)[n+]4[O-])cc3F)c12` [Final product 56], the values for the IC50 in assay [1], in assay [2] and in assay [3] were 14.4 nM, 5 nM and 17.7 nM, respectively.
`CC[C@@H](CO)Nc1n[nH]c2nccc(Oc3ccc(NC(=O)c4ccc(Cl)c(-c5ccc(F)cc5)[n+]4[O-])cc3F)c12` [Final product 59]: the IC50 was 7.9 nM in assay [1], 12.7 nM in assay [2] and 20.3 nM in assay [3].
Regarding `O=C(Nc1ccc(Oc2ccnc3[nH]nc(N[C@H]4CC[C@H](O)CC4)c23)c(F)c1)c1ccc(Cl)c(-c2ccc(F)cc2)[n+]1[O-]` [Final product 64], the values for the IC50 in assay [1] and in assay [3] were 22.5 nM and 45.6 nM, respectively.
Take `C[C@H](CO)Nc1n[nH]c2nccc(Oc3ccc(NC(=O)c4ccc(Cl)c(-c5ccc(Cl)cc5)[n+]4[O-])cc3F)c12` [Final product 65]: the figures for the IC50 in assay [1], in assay [2] and in assay [3] were 42.4 nM, 10.8 nM and 37.4 nM, respectively.
With `C[C@H](CO)Nc1n[nH]c2nccc(Oc3ccc(NC(=O)c4ccc(Cl)c(-c5ccc(F)cc5Cl)[n+]4[O-])cc3F)c12` [Final product 66], the IC50 is 35.5 nM in assay [1], 2.7 nM in assay [2] and 11 nM in assay [3].
Regarding `C[C@H](CO)Nc1n[nH]c2nccc(Oc3ccc(NC(=O)c4ccc(C5CC5)c(-c5ccc(F)cc5)[n+]4[O-])cc3F)c12` [Final product 81], the results for the IC50 in assay [1], in assay [2] and in assay [3] were 26 nM, 10.4 nM and 32.8 nM, respectively.
For `C[C@H](CO)Nc1n[nH]c2nccc(Oc3ccc(NC(=O)c4ccc(C(F)(F)F)c(-c5ccc(F)cc5)[n+]4[O-])cc3F)c12` [Final product 82], the results for the half-maximal inhibitory concentration (IC50) in assay [1], in assay [2] and in assay [3] were 29.6 nM, 17.4 nM and 48.1 nM, respectively.
For `C[C@H](CO)Nc1n[nH]c2nccc(Oc3ccc(NC(=O)c4ccc(C#N)c(-c5ccc(F)cc5)[n+]4[O-])cc3F)c12` [Final product 83], the figures for the IC50 in assay [1], in assay [2] and in assay [3] were 6.2 nM, 3.2 nM and 30.4 nM, respectively.
Regarding `CSc1ccc(C(=O)Nc2ccc(Oc3ccnc4[nH]nc(N[C@H](C)CO)c34)c(F)c2)[n+]([O-])c1-c1ccc(F)cc1` [Final product 86], the values for the IC50 in assay [1], in assay [2] and in assay [3] were 29.7 nM, 6.4 nM and 10.2 nM, respectively.
With `C[C@H](CO)Nc1n[nH]c2nccc(Oc3ccc(NC(=O)c4ccc(S(C)(=O)=O)c(-c5ccc(F)cc5)[n+]4[O-])cc3F)c12` [Final product 87], the figures for the IC50 in assay [1], in assay [2] and in assay [3] were 23 nM, 5.3 nM and 20.6 nM, respectively.
For `C[C@H](CO)Nc1n[nH]c2nccc(Oc3ccc(NC(=O)c4ccc(N(C)C)c(-c5ccc(F)cc5)[n+]4[O-])cc3F)c12` [Final product 89], the figures for the IC50 in assay [1], in assay [2] and in assay [3] were 17.6 nM, 5.3 nM and 16.4 nM, respectively.
For the molecule `C[C@H](CO)Nc1n[nH]c2nccc(Oc3ccc(NC(=O)c4cc(C5CC5)cc(-c5ccc(F)cc5)[n+]4[O-])cc3F)c12` [Final product 91], the 50% inhibitory concentration (IC50) in assay [2] came out at 12.1 nM; in assay [3], 41.2 nM.
For `C[C@H](CO)Nc1n[nH]c2nccc(Oc3ccc(NC(=O)c4ccnc(-c5ccc(F)cc5)[n+]4[O-])cc3F)c12` [Final product 96], the values for the IC50 in assay [1], in assay [2] and in assay [3] were 4.5 nM, 2.2 nM and 14.1 nM, respectively.
For the molecule `COc1ccc2ncnc(Nc3ccc(NC(=O)c4cccc(-c5ccc(F)cc5)[n+]4[O-])cc3F)c2c1O[C@H](C)CO` [Final product 181, (R)-2-((3-fluoro-4-((5-((1-hydroxypropan-2-yl)oxy)-6-methoxyquinazolin-4-yl)amino)phenyl)carbamoyl)-6-(4-fluorophenyl)pyridine 1-oxide], the IC50 in assay [2] was determined as 11.7 nM; in assay [3] it was 29.2 nM.
